In PubChem BioAssay AID2060360 (Molecular Pharmacology Branch, DTP, NCI, 2025):

Test system: 282377-053-R-J1-PDC tumor spheroids, viability
Test: Anticancer human tumor 282377-053-R-J1-PDC patient-derived colon adenocarcinoma cell line growth inhibition [TAK]
Conditions: spheroids with HUVEC and MSC; for IC50: curve of first compound; for viability, T/C: stronger effect = lower value
Excerpt: Combinatorial screen of targeted agents with TAK-243 and ipatasertib in multi-cell type tumor spheroids
A high-throughput screen of multi-cell type tumor spheroids was designed to identify active combinations of targeted small molecules and TAK-243 or ipatasertib. Complex spheroids include a stromal component modeled by human endothelial cells (HUVEC) and fibroblasts modeled by human mesenchymal stem cells (MSCs). The concentration ranges selected for each drug and investigational agent were based upon clinically achievable concentrations if the clinical Cmax of the agent was known.
Compounds. The drugs and investigational agents: TAK-243 (785004), ipatasertib (767898), everolimus (733504), selumetinib (741078), bortezomib (756655), trametinib (758246), ixazomib (758254), vemurafenib (761431), dabrafenib (764134), sapanisertib (764658), alpelisib (765974), and copanlisib (816437), were obtained from the National Cancer Institute (NCI) Developmental Therapeutics Program Chemical Repository. The FDA-approved anticancer drug set is available from the NCI Developmental Therapeutics Program. […] The stock solutions were prepared in dimethyl sulfoxide (DMSO, Sigma-Aldrich, St. Louis, MO, cat. D2650) at 800-fold the tested concentration and stored at -70 degrees C prior to their use. All drugs and investigational agents were tested over a range starting from a high concentration at or near the clinical Cmax and decreasing in half-log increments. If the clinical Cmax for an agent had not been determined, the highest concentration tested was 10 microM.
NCI60 Cell Culture. NCI60 cell lines were obtained from the NCI Developmental Therapeutics Program Tumor Repository. For each lot of cells, the Repository performed Applied Biosystems AmpFLSTR Identifiler testing with PCR amplification to confirm consistency with the published Identifier STR profile for each cell line. Cells were kept in continuous culture for no more than 20 passages. The optimal seeding densities for each of the cell lines at each time point assessed were determined prior to performing the concentration response studies. Briefly, the NCI60 human tumor lines were grown as monolayers in RPMI 1640 medium supplemented with 10% FBS and 2 mmol/L L-glutamine.
An additional 2 lines were from the NCI60 cell line panel including melanomas, MALME-3M and SK-MEL-2. Pooled donor human umbilical vein endothelial cells (HUVEC, Lonza, cat. CC-2519) and human mesenchymal stem cells (hMSC, Lonza, cat. PT-2501) were purchased from Lonza (Walkersville, MD).
PDMR cell lines were grown in complete medium (DC medium): Dulbecco's modified Eagle's medium (DMEM)/F12 supplemented with 5% fetal bovine serum (FBS), 2 mM L-glutamine, 100 U/mL penicillin and 100 µg/ml streptomycin, 0.4 µg/ml hydrocortisone, 10 ng/ml epidermal growth factor (EGF) recombinant human protein, 24 µg/mL adenine, and 0.1 mg/mL primocin. During culture from frozen stock vials, PDMR cells were cultured in the same medium containing 10 µM Y-27632 (see Table 3). The PDCs were cultured in complete DMEM/F12 media without 10 microM Y-27632 dihydrochloride for at least two passages prior to the screen. The pooled donor HUVEC and hMSC were cultured in endothelial cell growth medium 2 (PromoCell, Heidelberg, Germany, cat. C-22011) and mesenchymal stem cell growth medium 2 (PromoCell, cat. C-28009), respectively. For all experiments, HUVEC and hMSC were used at passages </=5.
For the pre-screen, cell seeding densities were determined from a titration spanning the range from 5,000 to 313 cells per well. The mct-spheroids including 60% malignant cells, 25% HUVEC and 15% MSC dispensed as a mixture into U-bottom Ultra-Low Attachment 384-well plates (Corning, NY)
High-throughput Drug Combination Screening.
Prior to their inoculation into 384-well plates, malignant cells, HUVEC, and hMSC were removed from T flasks using TrypLE express (Thermo Fisher Scientific, cat. 12605036) and harvested by centrifugation for 5 min at 233 x g. […]
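Further: spheroids exposed to drugs for seven days before readout.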

Cn1cnc2c(F)c(Nc3ccc(Br)cc3Cl)c(C(=O)NOCCO)cc21 + CC(C)NCC(C(=O)N1CCN(c2ncnc3c2C(C)CC3O)CC1)c1ccc(Cl)cc1
IC50 (second compound 0.3 µM): 396 nM | IC50 (second compound 0.949 µM): 190 nM | IC50 (second compound 3 µM): 161 nM | IC50 (second compound 9.49 µM): 191 nM | IC50 (second compound 30 µM): 66 nM | viability, T/C (second compound 0.3 µM, first compound 0.00949 µM): 81.5% | viability, T/C (second compound 0.3 µM, first compound 0.03 µM): 74.4% | viability, T/C (second compound 0.3 µM, first compound 0.0949 µM): 63.6% | viability, T/C (second compound 0.3 µM, first compound 0.3 µM): 55.6% | viability, T/C (second compound 0.3 µM, first compound 0.949 µM): 38.4% | viability, T/C (second compound 0.3 µM, first compound 3 µM): 17.4% | viability, T/C (second compound 0.949 µM, first compound 0.00949 µM): 82% | viability, T/C (second compound 0.949 µM, first compound 0.03 µM): 70.9% | viability, T/C (second compound 0.949 µM, first compound 0.0949 µM): 56.9% | viability, T/C (second compound 0.949 µM, first compound 0.3 µM): 45.6% | viability, T/C (second compound 0.949 µM, first compound 0.949 µM): 31.8% | viability, T/C (second compound 0.949 µM, first compound 3 µM): 18.9% | viability, T/C (second compound 3 µM, first compound 0.00949 µM): 77.1% | viability, T/C (second compound 3 µM, first compound 0.03 µM): 70.5% | viability, T/C (second compound 3 µM, first compound 0.0949 µM): 54.8% | viability, T/C (second compound 3 µM, first compound 0.3 µM): 42.1% | viability, T/C (second compound 3 µM, first compound 0.949 µM): 31% | viability, T/C (second compound 3 µM, first compound 3 µM): 18.4% | viability, T/C (second compound 9.49 µM, first compound 0.00949 µM): 73.4% | viability, T/C (second compound 9.49 µM, first compound 0.03 µM): 72.2% | viability, T/C (second compound 9.49 µM, first compound 0.0949 µM): 57% | viability, T/C (second compound 9.49 µM, first compound 0.3 µM): 44.3% | viability, T/C (second compound 9.49 µM, first compound 0.949 µM): 30.1% | viability, T/C (second compound 9.49 µM, first compound 3 µM): 18.8% | viability, T/C (second compound 30 µM, first compound 0.00949 µM): 61.5% | viability, T/C (second compound 30 µM, first compound 0.03 µM): 59.8% | viability, T/C (second compound 30 µM, first compound 0.0949 µM): 45.2% | viability, T/C (second compound 30 µM, first compound 0.3 µM): 34.2% | viability, T/C (second compound 30 µM, first compound 0.949 µM): 26.4% | viability, T/C (second compound 30 µM, first compound 3 µM): 13.2%
